Data taken from the NIST ThermoML archive (doi:10.1021/je060243s).
Where “and” joins values, the source holds several entries; their conditions need not be identical. Identical values can stand only once. ± gives the expanded uncertainty stated by the source.

Test: wn = mass fraction of the nth substance listed
Details: Liquid, Pulse-echo method, w2 = 0.5

Compound FC(F)C(F)(F)F [pentafluoroethane] + FCF has a speed of sound (308.25 K, 40000 kPa) of 725.2 ± 1.3 m/s, a speed of sound (308.25 K, 45000 kPa) of 751.3 ± 1.3 m/s and a speed of sound (308.25 K, 50000 kPa) of 775.7 ± 1.3 m/s. It also gave a speed of sound (308.25 K, 55000 kPa) of 798.8 ± 1.3 m/s, a speed of sound (308.25 K, 60000 kPa) of 821 ± 1.3 m/s and a speed of sound (308.25 K, 65000 kPa) of 841.9 ± 1.3 m/s. For the same compound, the speed of sound (308.25 K) was 383.4 ± 1.3 m/s, the speed of sound (318.17 K, 2750 kPa) was 323.4 ± 1.4 m/s and the speed of sound (318.17 K, 2760 kPa) was 323.6 ± 1.4 m/s. For the same compound, the speed of sound (318.17 K, 2880 kPa) was 327.2 ± 1.4 m/s, the speed of sound (318.17 K, 3010 kPa) was 330.8 ± 1.4 m/s and the speed of sound (318.17 K, 3250 kPa) was 337.8 ± 1.4 m/s. For the same compound, the speed of sound (318.17 K, 3500 kPa) was 344.5 ± 1.4 m/s, the speed of sound (318.17 K, 4000 kPa) was 356.6 ± 1.4 m/s and the speed of sound (318.17 K, 4500 kPa) was 367.9 ± 1.4 m/s. The speed of sound (318.17 K, 5000 kPa) was 378.2 ± 1.4 m/s, the speed of sound (318.17 K, 6010 kPa) was 397.4 ± 1.3 m/s and the speed of sound (318.17 K, 7010 kPa) was 414.5 ± 1.3 m/s. For the same compound, the speed of sound (318.17 K, 8000 kPa) was 429.7 ± 1.3 m/s, the speed of sound (318.17 K, 9000 kPa) was 444.1 ± 1.3 m/s and the speed of sound (318.17 K, 10000 kPa) was 457.3 ± 1.3 m/s. For the same compound, the speed of sound (318.17 K, 12000 kPa) was 481.7 ± 1.3 m/s, the speed of sound (318.17 K, 14000 kPa) was 503.8 ± 1.3 m/s and the speed of sound (318.17 K, 16010 kPa) was 524.3 ± 1.3 m/s. The speed of sound (318.17 K, 18000 kPa) was 543.1 ± 1.3 m/s, the speed of sound (318.17 K, 20000 kPa) was 560.6 ± 1.3 m/s and the speed of sound (318.17 K, 23000 kPa) was 585.3 ± 1.3 m/s. For the same compound, the speed of sound (318.17 K, 26000 kPa) was 607.9 ± 1.3 m/s, the speed of sound (318.17 K, 29010 kPa) was 628.9 ± 1.3 m/s and the speed of sound (318.17 K, 32000 kPa) was 648.5 ± 1.3 m/s. It also gave a speed of sound (318.17 K, 35000 kPa) of 667.3 ± 1.3 m/s, a speed of sound (318.17 K, 40000 kPa) of 696.7 ± 1.3 m/s and a speed of sound (318.17 K, 45000 kPa) of 723.8 ± 1.3 m/s. It also gave a speed of sound (318.17 K, 50000 kPa) of 749.1 ± 1.3 m/s, a speed of sound (318.17 K, 55000 kPa) of 772.8 ± 1.3 m/s and a speed of sound (318.17 K, 60000 kPa) of 795.7 ± 1.3 m/s. For the same compound, the speed of sound (318.17 K, 65000 kPa) was 817.3 ± 1.3 m/s, the speed of sound (318.17 K) was 323.4 ± 1.3 m/s and the speed of sound (328.17 K, 3470 kPa) was 257.9 ± 1.5 m/s and 258.1 ± 1.5 m/s and 258 ± 1.5 m/s. For the same compound, the speed of sound (328.17 K, 3590 kPa) was 263.4 ± 1.5 m/s, the speed of sound (328.17 K, 3720 kPa) was 269.8 ± 1.5 m/s and the speed of sound (328.17 K, 3860 kPa) was 275.4 ± 1.5 m/s. It also gave a speed of sound (328.17 K, 4000 kPa) of 281.3 ± 1.5 m/s, a speed of sound (328.17 K, 4250 kPa) of 290.2 ± 1.5 m/s and a speed of sound (328.17 K, 4500 kPa) of 298.5 ± 1.5 m/s. The speed of sound (328.17 K, 5000 kPa) was 313.4 ± 1.4 m/s, the speed of sound (328.17 K, 6010 kPa) was 339.3 ± 1.4 m/s and the speed of sound (328.17 K, 7010 kPa) was 360.6 ± 1.3 m/s. The speed of sound (328.17 K, 8000 kPa) was 379.4 ± 1.3 m/s, the speed of sound (328.17 K, 9000 kPa) was 396.7 ± 1.3 m/s and the speed of sound (328.17 K, 10000 kPa) was 412.2 ± 1.3 m/s. It also gave a speed of sound (328.17 K, 12000 kPa) of 440.2 ± 1.3 m/s, a speed of sound (328.17 K, 14000 kPa) of 464.8 ± 1.3 m/s and a speed of sound (328.17 K, 16010 kPa) of 487.3 ± 1.3 m/s. It also gave a speed of sound (328.17 K, 18000 kPa) of 507.4 ± 1.3 m/s, a speed of sound (328.17 K, 20000 kPa) of 526.4 ± 1.3 m/s and a speed of sound (328.17 K, 23000 kPa) of 552.3 ± 1.3 m/s. For the same compound, the speed of sound (328.17 K, 26000 kPa) was 576.7 ± 1.3 m/s, the speed of sound (328.17 K, 29010 kPa) was 598.7 ± 1.3 m/s and the speed of sound (328.17 K, 32000 kPa) was 619.2 ± 1.3 m/s. The speed of sound (328.17 K, 35000 kPa) was 638.6 ± 1.3 m/s, the speed of sound (328.17 K, 40000 kPa) was 669 ± 1.3 m/s and the speed of sound (328.17 K, 45000 kPa) was 697.4 ± 1.3 m/s. It also gave a speed of sound (328.17 K, 50000 kPa) of 723.3 ± 1.3 m/s, a speed of sound (328.17 K, 55000 kPa) of 747.8 ± 1.3 m/s and a speed of sound (328.17 K, 60000 kPa) of 770.9 ± 1.3 m/s. It also gave a speed of sound (328.17 K, 65000 kPa) of 793.1 ± 1.3 m/s, a speed of sound (338.16 K, 4340 kPa) of 183.3 ± 1.7 m/s and a speed of sound (338.16 K, 4410 kPa) of 189.7 ± 1.6 m/s. It also gave a speed of sound (338.16 K, 4500 kPa) of 200.4 ± 1.6 m/s, a speed of sound (338.16 K, 4750 kPa) of 217.6 ± 1.6 m/s and a speed of sound (338.16 K, 5000 kPa) of 231.3 ± 1.5 m/s. The speed of sound (338.16 K, 5500 kPa) was 255.4 ± 1.5 m/s, the speed of sound (338.16 K, 6010 kPa) was 273.8 ± 1.4 m/s and the speed of sound (338.16 K, 7010 kPa) was 303.5 ± 1.3 m/s. It also gave a speed of sound (338.16 K, 8000 kPa) of 327.5 ± 1.3 m/s, a speed of sound (338.16 K, 9000 kPa) of 348.4 ± 1.3 m/s and a speed of sound (338.16 K, 10000 kPa) of 366.8 ± 1.3 m/s. It also gave a speed of sound (338.16 K, 12000 kPa) of 398.9 ± 1.3 m/s, a speed of sound (338.16 K, 14000 kPa) of 426.3 ± 1.3 m/s and a speed of sound (338.16 K, 16010 kPa) of 450.8 ± 1.3 m/s. For the same compound, the speed of sound (338.16 K, 18000 kPa) was 472.9 ± 1.3 m/s, the speed of sound (338.16 K, 20000 kPa) was 493.2 ± 1.3 m/s and the speed of sound (338.16 K, 23000 kPa) was 521.1 ± 1.3 m/s. For the same compound, the speed of sound (338.16 K, 26000 kPa) was 546.3 ± 1.3 m/s, the speed of sound (338.16 K, 29010 kPa) was 569.7 ± 1.3 m/s and the speed of sound (338.16 K, 32000 kPa) was 591.3 ± 1.3 m/s. It also gave a speed of sound (338.16 K, 35000 kPa) of 611.3 ± 1.3 m/s, a speed of sound (338.16 K, 40000 kPa) of 642.8 ± 1.3 m/s and a speed of sound (338.16 K, 45000 kPa) of 671.7 ± 1.3 m/s. It also gave a speed of sound (338.16 K, 50000 kPa) of 698.8 ± 1.3 m/s, a speed of sound (338.16 K, 55000 kPa) of 724.1 ± 1.3 m/s and a speed of sound (338.16 K, 60000 kPa) of 747.7 ± 1.3 m/s. For the same compound, the speed of sound (338.16 K, 65000 kPa) was 770.1 ± 1.3 m/s.
